Results taken from patent US6461997B1, “Triazole sulfones having herbicidal activity” (Monsanto Technology LLC, priority 1999, dated 2002).

tested on: SORHA (johnsongrass (seedling)); experiment: Pre-emergence herbicidal activity, warm season; type: in vivo, Sorghum halepense; conditions: GR80 = lowest tested rate (300, 100, 30, 10 g/ha) with 80% or greater inhibition; approx. 14 days after treating; 30/21° C.
Procedure, shortened: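 Seeds sown in sterilised fertilised topsoil received surface-applied compound in 50:50 acetone/water, typically at 300, 100, 30 and 10 g/ha, then greenhouse-grown at 30/21° C (warm-season species) or 18/13° C (cool-season species). Percent inhibition versus untreated plants was scored at about 14 days, giving GR80; an asterisk marks activity short of 80% at the top rate.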

SMILES	Pre-emergence activity (GR80) SORHA
CCSC(F)(F)S(=O)(=O)c1ncn(C(=O)N(CC)CC)n1 [Example 8, 1-(N,N-diethylcarbamoyl)-3-[difluoro(ethylthio)methylsulfonyl]-1,2,4-triazole]	100 g/ha
CCN(CC)C(=O)n1cnc(S(=O)(=O)C(F)(F)SCC(=O)OC)n1 [Example 11]	300 g/ha

tested on: ALOMY (blackgrass); experiment: Pre-emergence herbicidal activity, cool season; type: in vivo, Alopecurus myosuroides; conditions: GR80 = lowest tested rate (300, 100, 30, 10 g/ha) with 80% or greater inhibition; approx. 14 days after treating; 18/13° C.
Procedure, shortened: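 Pre-emergence soil-surface spray; rates 300/100/30/10 g/ha; acetone:water 50:50 diluent. Warm-season species (PANMI, DIGSA) grown at 30/21 °C, cool-season species (ALOMY, POLCO) at 18/13 °C. Inhibition scored ~14 d after treatment versus untreated controls → GR80.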

SMILES	Pre-emergence activity (GR80) ALOMY
CCSC(F)(F)S(=O)(=O)c1ncn(C(=O)N(CC)CC)n1 [Example 8, 1-(N,N-diethylcarbamoyl)-3-[difluoro(ethylthio)methylsulfonyl]-1,2,4-triazole]	100 g/ha
CCN(CC)C(=O)n1cnc(S(=O)(=O)C(F)(F)SCC(=O)OC)n1 [Example 11]	300 g/ha

tested on: AVEFA (wild oat); experiment: Pre-plant incorporated (PPI) herbicidal activity, cool season; type: in vivo, Avena fatua; conditions: Avena fatua; weed, PPI application, 30 g/ha; read-out: Percent inhibition AVEFA
Experimental: In another set of tests, the pre-plant incorporated (PPI) activity of compounds of this invention was evaluated on the same species as for the pre-emergence tests described above. In the PPI tests the following procedure, designed to simulate PPI application, was used.
(§1) A pre-prepared topsoil mixture (described above) was placed in a pot and compacted to a depth of 1.0 to 1.25 cm from the top of the pot. Seeds of each of several monocotyledonous and dicotyledonous annual plant species were placed on top of the soil. A sufficient quantity of soil to cover the seeds and level fill the pot was weighed into an open container. A known amount of the test compound was dissolved or suspended in an organic solvent and applied by spraying to this cover soil. The cover soil was thoroughly mixed to distribute the test compound throughout the cover soil, and was then applied as a cover layer over the seeds. Untreated soil was used as a cover layer for control pots. After treatment the plants were placed in a greenhouse where they received 0.64 cm of overhead irrigation. All subsequent watering consisted of a light overhead mist and/or subirrigation as needed for germination and growth. Tables 9 and 10 below relate to warm season plant species which were placed after pre-emergence treatment in a greenhouse with a 30/21° C. day/night temperature regime. Tables 11 and 12 below relates to cool season plant species placed after pre-emergence treatment in a greenhouse or growth chamber with an 18/13° C. day/night temperature regime. Only the compounds of Examples 1, 6, 8, 11, 13 and 15-20 were included in PPI tests.
(§2) Approximately 14 days after planting and treating, the plants were observed and herbicidal efficacy recorded as percent inhibition by comparison with untreated plants.

SMILES	inhibition at 30 g/ha
CCSC(F)(F)S(=O)(=O)c1ncn(C(=O)N(CC)CC)n1 [Example 8, 1-(N,N-diethylcarbamoyl)-3-[difluoro(ethylthio)methylsulfonyl]-1,2,4-triazole]	10%

same assay, conditions: Avena fatua; weed, PPI application, 100 g/ha; read-out: Percent inhibition AVEFA

SMILES	inhibition at 100 g/ha
CCSC(F)(F)S(=O)(=O)c1ncn(C(=O)N(CC)CC)n1 [Example 8, 1-(N,N-diethylcarbamoyl)-3-[difluoro(ethylthio)methylsulfonyl]-1,2,4-triazole]	75%

same assay, conditions: Avena fatua; weed, PPI application, 300 g/ha; read-out: Percent inhibition AVEFA

SMILES	inhibition at 300 g/ha
CCSC(F)(F)S(=O)(=O)c1ncn(C(=O)N(CC)CC)n1 [Example 8, 1-(N,N-diethylcarbamoyl)-3-[difluoro(ethylthio)methylsulfonyl]-1,2,4-triazole]	95%

same assay, conditions: Avena fatua; weed, PPI application, 900 g/ha; read-out: Percent inhibition AVEFA

SMILES	inhibition at 900 g/ha
CCSC(F)(F)S(=O)(=O)c1ncn(C(=O)N(CC)CC)n1 [Example 8, 1-(N,N-diethylcarbamoyl)-3-[difluoro(ethylthio)methylsulfonyl]-1,2,4-triazole]	100%

same assay, conditions: pre-plant incorporated; lowest tested rate with 80% or greater inhibition; about 14 days

SMILES	PPI activity GR80, AVEFA
CCSC(F)(F)S(=O)(=O)c1ncn(C(=O)N(CC)CC)n1 [Example 8, 1-(N,N-diethylcarbamoyl)-3-[difluoro(ethylthio)methylsulfonyl]-1,2,4-triazole]	100 g/ha
CCN(CC)C(=O)n1cnc(S(=O)(=O)C(F)(F)SCC(=O)OC)n1 [Example 11]	[empty]

same assay, conditions: weed, PPI application, 10 g/ha

SMILES	Percent inhibition AVEFA
CCN(CC)C(=O)n1cnc(S(=O)(=O)C(F)(F)SCC(=O)OC)n1 [Example 11]	0%

same assay, conditions: weed, PPI application, 30 g/ha

SMILES	Percent inhibition AVEFA
CCN(CC)C(=O)n1cnc(S(=O)(=O)C(F)(F)SCC(=O)OC)n1 [Example 11]	0%

same assay, conditions: weed, PPI application, 100 g/ha

SMILES	Percent inhibition AVEFA
CCN(CC)C(=O)n1cnc(S(=O)(=O)C(F)(F)SCC(=O)OC)n1 [Example 11]	0%

same assay, conditions: weed, PPI application, 300 g/ha

SMILES	Percent inhibition AVEFA
CCN(CC)C(=O)n1cnc(S(=O)(=O)C(F)(F)SCC(=O)OC)n1 [Example 11]	0%

same assay, conditions: weed, PPI application, 900 g/ha

SMILES	Percent inhibition AVEFA
CCN(CC)C(=O)n1cnc(S(=O)(=O)C(F)(F)SCC(=O)OC)n1 [Example 11]	60%

tested on: LOLMG (annual ryegrass); experiment: Post-emergence herbicidal activity, cool season; type: in vivo, Lolium multiflorum; conditions: abraded plants sprayed at 300, 100, 30 and 10 g/ha; about 14 days after treatment
Procedure, shortened: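 GR80 values derive from percent growth inhibition scored approximately 14 days post-spray against abraded, unsprayed controls under an 18/13 °C regime. Foliar application to sandblast-abraded plants used rates of 300, 100, 30 and 10 g/ha in 50:50 acetone/water at 3,100 l/ha.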

SMILES	Post-emergence activity GR80, LOLMG
CCSC(F)(F)S(=O)(=O)c1ncn(C(=O)N(CC)CC)n1 [Example 8, 1-(N,N-diethylcarbamoyl)-3-[difluoro(ethylthio)methylsulfonyl]-1,2,4-triazole]	[empty]
CCN(CC)C(=O)n1cnc(S(=O)(=O)C(F)(F)SCC(=O)OC)n1 [Example 11]	[empty]

tested on: soybean (GLYMX); experiment: Selectivity test, PPI, warm season crop; type: in vivo, Glycine max; conditions: Glycine max; PPI application, 30 g/ha; read-out: Percent inhibition GLYMX
Experimental: as §1, §2
(§3) Additional pre-emergence and PPI tests were conducted by the procedures described above, on warm and cool season weed species in the presence of crop species, to assess herbicidal selectivity. Crop species included in warm season tests were corn (Zea mays, ZEAMX), rice (Oryza sativa, ORYSA) and soybean (Glycine max, GLYMX). Crop species included in cool season tests were wheat (Triticum aestivum, TRZAW), barley (Hordeunm vulgare, HORVX) and oilseed rape (Brassica napus, BRSNS).
(§4) Tables 15 and 16 relate to pre-emergence and PPI tests respectively on warm season species. Table 17 relates to pre-emergence tests on cool season species.

SMILES	inhibition at 30 g/ha
CCSC(F)(F)S(=O)(=O)c1ncn(C(=O)N(CC)CC)n1 [Example 8, 1-(N,N-diethylcarbamoyl)-3-[difluoro(ethylthio)methylsulfonyl]-1,2,4-triazole]	0%

same assay, conditions: Glycine max; PPI application, 100 g/ha; read-out: Percent inhibition GLYMX

SMILES	inhibition at 100 g/ha
CCSC(F)(F)S(=O)(=O)c1ncn(C(=O)N(CC)CC)n1 [Example 8, 1-(N,N-diethylcarbamoyl)-3-[difluoro(ethylthio)methylsulfonyl]-1,2,4-triazole]	10%

same assay, conditions: Glycine max; PPI application, 300 g/ha; read-out: Percent inhibition GLYMX

SMILES	inhibition at 300 g/ha
CCSC(F)(F)S(=O)(=O)c1ncn(C(=O)N(CC)CC)n1 [Example 8, 1-(N,N-diethylcarbamoyl)-3-[difluoro(ethylthio)methylsulfonyl]-1,2,4-triazole]	40%

same assay, conditions: Glycine max; PPI application, 900 g/ha; read-out: Percent inhibition GLYMX

SMILES	inhibition at 900 g/ha
CCSC(F)(F)S(=O)(=O)c1ncn(C(=O)N(CC)CC)n1 [Example 8, 1-(N,N-diethylcarbamoyl)-3-[difluoro(ethylthio)methylsulfonyl]-1,2,4-triazole]	65%

same assay, conditions: PPI application, 10 g/ha

SMILES	Percent inhibition GLYMX
CCN(CC)C(=O)n1cnc(S(=O)(=O)C(F)(F)SCC(=O)OC)n1 [Example 11]	0%

same assay, conditions: PPI application, 30 g/ha

SMILES	Percent inhibition GLYMX
CCN(CC)C(=O)n1cnc(S(=O)(=O)C(F)(F)SCC(=O)OC)n1 [Example 11]	0%

same assay, conditions: PPI application, 100 g/ha

SMILES	Percent inhibition GLYMX
CCN(CC)C(=O)n1cnc(S(=O)(=O)C(F)(F)SCC(=O)OC)n1 [Example 11]	0%

same assay, conditions: PPI application, 300 g/ha

SMILES	Percent inhibition GLYMX
CCN(CC)C(=O)n1cnc(S(=O)(=O)C(F)(F)SCC(=O)OC)n1 [Example 11]	10%

same assay, conditions: PPI application, 900 g/ha

SMILES	Percent inhibition GLYMX
CCN(CC)C(=O)n1cnc(S(=O)(=O)C(F)(F)SCC(=O)OC)n1 [Example 11]	30%

tested on: barley (HORVX); experiment: Selectivity test, PPI, cool season crop; type: in vivo, Hordeunm vulgare; conditions: Hordeum vulgare, PPI application, 30 g/ha, read-out: Percent inhibition HORVX
Experimental: as §1, §2, §3, §4

SMILES	inhibition at 30 g/ha
CCSC(F)(F)S(=O)(=O)c1ncn(C(=O)N(CC)CC)n1 [Example 8, 1-(N,N-diethylcarbamoyl)-3-[difluoro(ethylthio)methylsulfonyl]-1,2,4-triazole]	0%

same assay, conditions: Hordeum vulgare, PPI application, 100 g/ha, read-out: Percent inhibition HORVX

SMILES	inhibition at 100 g/ha
CCSC(F)(F)S(=O)(=O)c1ncn(C(=O)N(CC)CC)n1 [Example 8, 1-(N,N-diethylcarbamoyl)-3-[difluoro(ethylthio)methylsulfonyl]-1,2,4-triazole]	0%

same assay, conditions: Hordeum vulgare, PPI application, 300 g/ha, read-out: Percent inhibition HORVX

SMILES	inhibition at 300 g/ha
CCSC(F)(F)S(=O)(=O)c1ncn(C(=O)N(CC)CC)n1 [Example 8, 1-(N,N-diethylcarbamoyl)-3-[difluoro(ethylthio)methylsulfonyl]-1,2,4-triazole]	10%

same assay, conditions: Hordeum vulgare, PPI application, 900 g/ha, read-out: Percent inhibition HORVX

SMILES	inhibition at 900 g/ha
CCSC(F)(F)S(=O)(=O)c1ncn(C(=O)N(CC)CC)n1 [Example 8, 1-(N,N-diethylcarbamoyl)-3-[difluoro(ethylthio)methylsulfonyl]-1,2,4-triazole]	60%

same assay, conditions: PPI application, 10 g/ha

SMILES	Percent inhibition HORVX
CCN(CC)C(=O)n1cnc(S(=O)(=O)C(F)(F)SCC(=O)OC)n1 [Example 11]	0%

same assay, conditions: PPI application, 30 g/ha

SMILES	Percent inhibition HORVX
CCN(CC)C(=O)n1cnc(S(=O)(=O)C(F)(F)SCC(=O)OC)n1 [Example 11]	0%

same assay, conditions: PPI application, 100 g/ha

SMILES	Percent inhibition HORVX
CCN(CC)C(=O)n1cnc(S(=O)(=O)C(F)(F)SCC(=O)OC)n1 [Example 11]	0%

same assay, conditions: PPI application, 300 g/ha

SMILES	Percent inhibition HORVX
CCN(CC)C(=O)n1cnc(S(=O)(=O)C(F)(F)SCC(=O)OC)n1 [Example 11]	0%

same assay, conditions: PPI application, 900 g/ha

SMILES	Percent inhibition HORVX
CCN(CC)C(=O)n1cnc(S(=O)(=O)C(F)(F)SCC(=O)OC)n1 [Example 11]	10%
